Laboratory results published in the NIST ThermoML archive (doi:10.1016/j.jct.2016.11.019).
Numbers after ± are expanded uncertainties.

Assay: Molar enthalpy of transition or fusion
Conditions: Crystal; DSC

- Molar enthalpy of transition or fusion: 28.8 ± 0.99 kJ/mol
Compound: Nc1cc(Cl)ccc1C(=O)O [2-amino-4-chlorobenzoic acid]
